BindingDB's records for doi:10.1074/jbc.M705416200 (University Würzburg, 2007)
Peptide text beside a SMILES is read from it.

Experiment: Inhibition of human SGLT1 expressed in xenopus laevis oocyte assessed as inhibition of methyl-alpha-D-[14C]glucopyranoside uptake after 1 hrs

First: NC(=O)CC[C@H](N)C(=O)N[C@@H](CO)C(=O)N1CCC[C@H]1C(=O)O [(S)-1-((S)-2-((S)-2,5-diamino-5-oxopentanamido)-3-hydroxypropanoyl)pyrrolidine-2-carboxylic acid] (H-Gln-Ser-Pro-OH)
Second: NC(=O)CC[C@H](N)C(=O)N[C@@H](CS)C(=O)N1CCC[C@H]1C(=O)O [QCP] (H-Gln-Cys-Pro-OH)
The IC50 of the first is 13-fold lower: 160 pM for the first, 2100 pM for the second. The first is the more potent here.

`CC(=O)N1CCC[C@H]1C(=O)N[C@@H](CO)C(=O)N[C@@H](CCC(N)=O)C(=O)O` [QSPac] (Ac-Pro-Ser-Gln-OH) gave an IC50 of 170 pM.
